Experimental data from patent US11753484B2, “Cellulose ether-lactam hybrid polymers, compositions, and methods for preparing and using the hybrid polymers” (HERCULES LLC, priority 2017, dated 2023).

Legend:
[1] = description of the API; cited from earlier work
[2] = Glass transition temperature (Tg) by differential scanning calorimetry; format: physicochemical; details: regular DSC, heat-cool-heat, 10° C./minute, second heating cycle
Description: Differential Scanning Calorimetry (DSC): Glass transition temperature Tg is an important indicator of API physical stability against crystallization through storage. The higher Tg, the better physical stability. Generally speaking, if the Tg is equal to or higher than storage temperature+50° C., then the product is expected to be very stable throughout the entire shelf life. If the Tg is between storage temperature and temperature+50° C., then some stability issue may occur.
The glass transition temperature (Tg) measurement were conducted using TA instrument, Q2000. For pure ingredients, regular DSC set up was used. A heat-cool-heat cycle with a heating rate of 10° C./minutes was implemented. The first heating cycle is used to standardize sample by erasing its thermal history, and the Tg from second heating cycle is reported. For SDD, modulated DSC set up was used. An average heating rate of 2° C./minute with modulation amplitude of 1° per 40 seconds was implemented.
The measurement results are summarized below in the Table. […] Stable SDDs are expected from this indicator.

[3] = Dissolution of Efavirenz spray dried dispersions in FaSSIF media (Pion μDiss Profiler); format: physicochemical
Description: (§1) The active pharmaceutical ingredient (API) and polymer were mixed in a 30:70 ratio and spray-dried into a spray dried dispersion (SDD). The following are the solution preparation and spray drying process information. Solution preparation: Efavirenz and polymers were dissolved in a 2:1 (w/w) mixture of acetone:methanol solution at a total 3% solid loading. Dissolution of all components was visually confirmed before spray drying. Spray drying: Spray drying was performed on a GEA-Niro SD Micro spray dryer. All dispersions were spray dried targeting an inlet gas temperature of 85° C., 25 kg/hour process gas flow, 0.5 barr atomization gas pressure, 1.5 kg/hour atomizing gas flow, and an adjustable liquid feed rate targeting an outlet gas temperature of 55° C. The feed solution was held at ambient conditions. Dissolution: The dissolution tests were conducted using Pion μDiss Profiler with in situ Fiber Optic UV-Vis Monitoring. 66.7 mg spray dried dispersion (SDD) was weighed and tested in the dissolution, with 30% drug loading level (20 mg API). The controlled reference used in dissolution testing is pure API Efavirenz (20 mg). The quantity of dissolution media is 20 mL. The API concentrations were monitored for 2 hours. For each sample, triplicate measurements were taken and the average results were reported. Fasted Simulated Intestine Fluid (FaSSIF), as well as pH 6.8 phosphate buffer, were used to perform the dissolution. FaSSIF is virtually the same as the small intestinal juices present when one hasn't eaten any food, and contain bile salts and phospholipids, physiologically relevant surfactants which are missing from typical dissolution media. The use of FaSSIF media can help to better correlate the in vitro dissolution property and the in vivo response (IVIVC), so as to further understand the API performance in actual human body. Meanwhile, pH 6.8 phosphate buffer medium was also used in the study, as it was more typically used in formulation development/screening process, pH 6.8 phosphate buffer medium is not as indicated as FaSSIF medium in terms of establishing the IVIVC. […]

[4] = Dissolution of Efavirenz spray dried dispersions in pH 6.8 phosphate buffer media (Pion μDiss Profiler); format: physicochemical
Description: as §1

[5] = BCS-2 type drug; cited from earlier work
[6] = cited from earlier work
[7] = 20 mg API in 20 mL, 30% drug load SDD (API:polymer 30:70), 2 hours, mean of triplicate
[8] = Efavirenz concentration at 120 min, SDD 30:70

SMILES: O=C1Nc2ccc(Cl)cc2[C@@](C#CC2CC2)(C(F)(F)F)O1 [Efavirenz]
- glass transition temperature [1]: around 35 °C
- Tg, Pure ingredient [2]: 34.9 °C
- AUC [3, 7]: 18702.91 µg·min/mL
- relAUC ([3]; AUC of SDD vs AUC of neat API): 1.0
- C120 [3, 8]: 166.7892 µg/mL
- AUC [4, 7]: 960.92 µg·min/mL
- relAUC ([4]; AUC of SDD vs AUC of neat API): 1.0
- C120 [4, 8]: 9.924 µg/mL
- aqueous solubility [5]: poor
- partition coefficient in an octanol-water system (logP) [6]: 4.7
